Assay: Metabolic stability in the presence of human hepatic microsomes
Type: in vitro ADME
Conditions: compound 1 μM (DMSO 0.1%), microsomal protein 0.5 mg/mL, LC/MS/MS
Protocol: This is illustrated more particularly by the test of metabolic stability in the presence of human hepatic microsomes presented below.
Human hepatic microsomes (Becton Dickinson) are incubated at a protein concentration of 0.5 mg/mL in the reaction mixture.
The reaction mixture of the microsomes consists of phosphate buffer pH: 7.4 at 100 mM, MgCl2 at 100 mM (50/50), a system for generating […] consisting of a mixture of nicotinamide adenine […] (NADP), glucose-6-phosphate (G6P) at 1 mg/mL and glucose-6-phosphate dehydrogenase (G6PDH) at 4 U/mL. The compounds are tested at 1 μM (DMSO 0.1%).
The samples are taken from the incubation medium after adding the microsomes, at time 15 minutes. The metabolic reaction is stopped by adding methanol (1 volume incubation medium/3 volumes of methanol). The percentage of the parent product remaining after 15 minutes is measured by LC/MS/MS analysis.

| SMILES | % of product remaining at 15 min (human hepatic microsomes) [%] |
| --- | --- |
| COc1c(C)cccc1-c1cn(CC(=O)N2CCC(N3CCc4ccccc4NC3=O)CC2)c(=O)n(C)c1=O [Compound 25, 5-(2-methoxy-3-methylphenyl)-3-methyl-1-{2-oxo-2-[4-(2-oxo-1,2,4,5-tetrahydro-benzo[d][1,3]diazepin-3-yl)-piperidin-1-yl]-ethyl}-1H-pyrimidine-2,4-dione] | 8 |
| Cc1cccc(-c2cn(CC(=O)N3CCC(N4CCc5ccccc5NC4=O)CC3)c(=O)n(C)c2=O)c1C [Compound 30, 5-(2,3-dimethylphenyl)-3-methyl-1-{2-oxo-2-[4-(2-oxo-1,2,4,5-tetrahydro-benzo[d][1,3]diazepin-3-yl)-piperidin-1-yl]-ethyl}-1H-pyrimidine-2,4-dione] | 16 |
| CC(C)n1c(=O)c(-c2cccc(F)c2Cl)cn(CC(=O)N2CCC(N3CCc4ccccc4NC3=O)CC2)c1=O [Compound 63, 5-(2-chloro-3-fluorophenyl)-3-isopropyl-1-{2-oxo-2-[4-(2-oxo-1,2,4,5-tetrahydro-benzo[d][1,3]diazepin-3-yl)-piperidin-1-yl]-ethyl}-1H-pyrimidine-2,4-dione] | 45 |
| COC[C@@H](C)n1c(=O)c(-c2cccc(F)c2Cl)cn(CC(=O)N2CCC(N3CCc4ccccc4NC3=O)CC2)c1=O [Compound 110, 5-(2-chloro-3-fluorophenyl)-3-((R)-2-methoxy-1-methylethyl)-1-{2-oxo-2-[4-(2-oxo-1,2,4,5-tetrahydro-benzo[d][1,3]diazepin-3-yl)-piperidin-1-yl]-ethyl}-1H-pyrimidine-2,4-dione] | 1 |
| CSCCn1c(=O)c(-c2cccc(F)c2Cl)cn(CC(=O)N2CCC(N3CCc4ccccc4NC3=O)CC2)c1=O [Compound 112, 5-(2-chloro-3-fluorophenyl)-3-(2-methylsulphanyl-ethyl)-1-{2-oxo-2-[4-(2-oxo-1,2,4,5-tetrahydro-benzo[d][1,3]diazepin-3-yl)-piperidin-1-yl]-ethyl}-1H-pyrimidine-2,4-dione] | 0 |
| COC(=O)CCn1c(=O)c(-c2cccc(F)c2Cl)cn(CC(=O)N2CCC(N3CCc4ccccc4NC3=O)CC2)c1=O [Compound 114, 3-(5-(2-chloro-3-fluorophenyl)-2,6-dioxo-3-{2-oxo-2-[4-(2-oxo-1,2,4,5-tetrahydro-benzo[d][1,3]diazepin-3-yl)-piperidin-1-yl]-ethyl}-3,6-dihydro-2H-pyrimidin-1-yl)-methyl propionate] | 41 |
| COc1ccc2c(c1)CCN(C1CCN(C(=O)Cn3cc(-c4cccc(F)c4Cl)c(=O)n([C@@H](C)CNC(C)=O)c3=O)CC1)C(=O)N2 [Compound 115, N—[(S)-2-(5-(2-chloro-3-fluorophenyl)-3-{2-[4-(7-methoxy-2-oxo-1,2,4,5-tetrahydro-benzo[d][1,3]diazepin-3-yl)-piperidin-1-yl]-2-oxo-ethyl}-2,6-dioxo-3,6-dihydro-2H-pyrimidin-1-yl)-propyl]acetamide] | 0 |
| COc1ccc2c(c1)CCN(C1CCN(C(=O)Cn3cc(-c4cccc(F)c4Cl)c(=O)n([C@@H](C)CNS(C)(=O)=O)c3=O)CC1)C(=O)N2 [Compound 120, N—[(S)-2-(5-(2-chloro-3-fluorophenyl)-3-{2-[4-(7-methoxy-2-oxo-1,2,4,5-tetrahydro-benzo[d][1,3]diazepin-3-yl)-piperidin-1-yl]-2-oxo-ethyl}-2,6-dioxo-3,6-dihydro-2H-pyrimidin-1-yl)-propyl]-methanesulphonamide] | 1 |
| COc1ccc2c(c1)CCN(C1CCN(C(=O)Cn3cc(-c4cccc(F)c4Cl)c(=O)n([C@@H](C)CS(C)(=O)=O)c3=O)CC1)C(=O)N2 [Compound 142, 5-(2-chloro-3-fluorophenyl)-3-((S)-2-methanesulphonyl-1-methylethyl)-1-{2-[4-(7-methoxy-2-oxo-1,2,4,5-tetrahydro-benzo[d][1,3]diazepin-3-yl)-piperidin-1-yl]-2-oxo-ethyl}-1H-pyrimidine-2,4-dione] | 65 |
| COc1ccc2c(c1)CCN(C1CCN(C(=O)Cn3cc(-c4cccc(F)c4Cl)c(=O)n([C@H](C)CS(C)(=O)=O)c3=O)CC1)C(=O)N2 [Compound 143, 5-(2-chloro-3-fluorophenyl)-3-((R)-2-methanesulphonyl-1-methylethyl)-1-{2-[4-(7-methoxy-2-oxo-1,2,4,5-tetrahydro-benzo[d][1,3]diazepin-3-yl)-piperidin-1-yl]-2-oxo-ethyl}-1H-pyrimidine-2,4-dione] | 42 |
| COc1ccc2c(c1)CCN(C1CCN(C(=O)Cn3cc(-c4cccc(OC)c4F)c(=O)n(C(C)C)c3=O)CC1)C(=O)N2 [Compound 149, 5-(2-fluoro-3-methoxyphenyl)-3-isopropyl-1-{2-[4-(7-methoxy-2-oxo-1,2,4,5-tetrahydro-benzo[d][1,3]diazepin-3-yl)-piperidin-1-yl]-2-oxo-ethyl}-1H-pyrimidine-2,4-dione] | 26 |
| COc1ccc2c(c1)CCN(C1CCN(C(=O)Cn3cc(-c4ccccc4OC(F)(F)F)c(=O)n(C(C)C)c3=O)CC1)C(=O)N2 [Compound 150, 3-isopropyl-1-{2-[4-(7-methoxy-2-oxo-1,2,4,5-tetrahydro-benzo[d][1,3]diazepin-3-yl)-piperidin-1-yl]-2-oxo-ethyl}-5-(2-trifluoromethoxyphenyl)-1H-pyrimidine-2,4-dione] | 0 |
| CCC(=O)NC[C@H](C)n1c(=O)c(-c2cccc(F)c2Cl)cn(CC(=O)N2CCC(N3CCc4cc(OC)ccc4NC3=O)CC2)c1=O [Compound 158, N—[(S)-2-(5-(2-chloro-3-fluorophenyl)-3-{2-[4-(7-methoxy-2-oxo-1,2,4,5-tetrahydro-benzo[d][1,3]diazepin-3-yl)-piperidin-1-yl]-2-oxo-ethyl}-2,6-dioxo-3,6-dihydro-2H-pyrimidin-1-yl)-propyl]-propionamide] | 0 |
| COC[C@H](C)n1c(=O)c(-c2cccc(F)c2Cl)cn(CC(=O)Nc2ccc3c(c2)C[C@@]2(C3)C(=O)Nc3ncccc32)c1=O [Compound 165] | 0 |
| COc1cccc(C2=CN(CC(=O)N3CCC(N4CCc5ccccc5NC4=O)CC3)C(=O)N(C(C)C)C2)c1Cl [Compound 193, 3-(1-{2-[5-(2-chloro-3-methoxyphenyl)-3-isopropyl-2-oxo-3,4-dihydro-2H-pyrimidin-1-yl]-acetyl}-piperidin-4-yl)-1,3,4,5-tetrahydro-benzo[d][1,3]diazepin-2-one] | 18 |
| COc1ccc2c(c1)CCN(C1CCN(C(=O)Cn3cc(-c4cccc(OC)c4Cl)c(=O)n([C@@H](C)CNC(C)=O)c3=O)CC1)C(=O)N2 [Compound 206, N—[(S)-2-(5-(2-chloro-3-methoxyphenyl)-3-{2-[4-(7-methoxy-2-oxo-1,2,4,5-tetrahydro-benzo[d][1,3]diazepin-3-yl)-piperidin-1-yl]-2-oxo-ethyl}-2,6-dioxo-3,6-dihydro-2H-pyrimidin-1-yl)-propyl]acetamide] | 1 |

From patent publication US10246422B2, “Heterocyclic compounds and use thereof in medicine and in cosmetics” (GALDERMA RESEARCH & DEVELOPMENT, priority 2014, dated 2019)
